From patent US5854036A, “Sesquiteterpenic dervatives” (Gruppo Lepetit S.p.A., priority 1994, dated 1998)
Entries after “also recorded” stand apart in the source; their conditions may differ. Blank lines part the entries; values can stand above or below the compound they belong to.

Columns and labels:
inositol monophosphatase = conditions: literature statement; cited from earlier work
[1] = test system: manic symptoms / bipolar disorder; conditions: cited from earlier work
[2] = cited from earlier work
[3] = molecular target: T1, inositol monophosphatase (EC 3.1.3.25) (Bos taurus, UniProt P20456); test: inhibition of inositol monophosphatase (IMPase, EC 3.1.3.25); phosphate liberated from 4 mM 2-glycerolphosphate, molybdate coloration; format: biochemical, animal; conditions: for IC50: Table 1, pH 7.5, 4 mM 2-glycerolphosphate, 5 ug/ml IMPase, 30 minutes, read-out: IC50 (amount of inhibitor required to inhibit the enzyme activity by 50%) (converted)
T1 construct: host or cells: animal brain or recombinant E. coli expressing animal IMPase
T1 sequence (P20456 1-277): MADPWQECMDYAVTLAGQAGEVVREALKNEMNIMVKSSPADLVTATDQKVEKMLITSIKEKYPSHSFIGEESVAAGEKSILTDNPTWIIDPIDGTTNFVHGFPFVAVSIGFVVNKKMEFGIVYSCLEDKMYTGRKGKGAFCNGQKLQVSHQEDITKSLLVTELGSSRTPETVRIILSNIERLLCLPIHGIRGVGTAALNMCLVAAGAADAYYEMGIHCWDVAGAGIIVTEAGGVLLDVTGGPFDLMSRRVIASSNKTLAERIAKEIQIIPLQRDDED
Excerpt: For determining said activity, IMPase with a purity higher than 90% as judged by SDS-PAGE (sodium dodecyl sulphate polyacrylamide gel electrophoresis) is purified as described in P. D. Pelton and A. J.
Ganzhorn, Journal Biolog. Chem., 267, 1992, pp. 5916-5920. The enzyme can be purified from animal brain or from recombinant E. coli strains expressing animal IMPase. Although crude enzyme preparations can also be used it is preferable to use purified enzyme. The purified enzyme routinely has a specific activity of 25 μmol of Pi/min/mg of protein as determined in a standard assay (P. V. Attwood et al., Biochem. Jour., 1988, 253, pp. 387-394) with 4 mH 2-glycerolphosphate as substrate.
The enzyme activity may be determined according to A. J. Ganzhorn and M. C. Chanal, Biochem., 1990, 29; the reaction mixture contains 50mM Tris-HCl, pH 7.5, 2 mM magnesium chloride and 0.1 mM EGTA. Then, 5 ug/ml of IMPase and 4 mM of 2-glycerolphosphate substrate are added to the reaction mixture; alternatively, it is also possible to add the substrate directly into the reaction mixture, before adding the enzyme.
The reaction is considered terminated after 30 minutes from the addition of the substrate or the enzyme (depending on which one is added later); the liberated phosphate is determined by molybdate coloration (P. V. Attwood et al., Biochem. Jour., 1988, 253, pp. 387-394) at 350 nm with a Shimadzu spectrophotometer UV 2100.
The enzyme reaction is performed either in the absence or in the presence of various concentrations of 6'β-Stachybotrydial or MDL63394 to determine the amount of inhibitor required to inhibit the enzyme activity by 50% (IC50); the results are reported in Table 1, compared with the activity of L-671,776.

complement system = conditions: literature statement; cited from earlier work

Compound: lithium
IMPase-inhibiting activity (inositol monophosphatase): inhibits the activity of said enzyme
time to exert antimanic effect ([1]; acute bipolar disorder): 7 to 10 days
antimanic / prophylactic effect ([1]; manic patients): highly specific in alleviating manic symptoms; also recorded: clear prophylaxis against disease recurrences and deterioration has been demonstrated
adverse effects ([2]; lithium therapy): can cause a transient leukocytosis, can cause patients with a borderline thyroid reserve to become clinically hypothyroid, and can decompensate cardiac status due to shifts in fluids and electrolytes; also recorded: Structural lesions in kidney, such as interstitial fibrosis, tubular atrophy and glomerular sclerosis; also recorded: tremor, weight gain, diarrhea and skin rash
occurrence of polyuria-polydipsia syndrome ([2]; treated patients): up to 60%

IC50 [3]: 463 µM
Compound: CC1CCC2C(C)(C)C(O)CCC2(C)C12Cc1c(O)cc(CO)c(C=O)c1O2 [L-671,776]
IMPase-inhibiting activity (inositol monophosphatase): shows the above IMPase-inhibiting activity

IC50 [3]: 64.7 µM
inhibitory activity against the enzyme inositol monophosphatase ([3]; qualitative statement): show inhibitory activity
Compound: C[C@@H]1CCC2C(C)(C)[C@@H](O)CC[C@]2(C)[C@@]12Cc1c(O)cc(C=O)c(C=O)c1O2 (stereo partly drawn) [6'β-Stachybotrydial]

Compound: C[C@@H]1CCC2C(C)(C)[C@H](O)C(O)C[C@]2(C)[C@@]12Cc1c(O)cc(C=O)c(C=O)c1O2 (stereo partly shown) [K-76]
inhibitor of the complement system (complement system): inhibitor of the complement system
